These are literature values, as cited in paper PMC8162882 (Chemical Science, 2020).

The conditions of this data set: as toxic as the natural product.

In the case of amanin, the “Toxicity relative to the natural product (6′-OH replaced by H)” value was 25–50%.
With amaninamide, the “Toxicity relative to the natural product (6′-OH replaced by H)” value is listed as 25–50%.
